Read-outs that look alike come from different tables or passages of the source.
Key:
EGFR L858R/T790M = EGFR L858R/T790M (Homo sapiens, UniProt P00533, L858R/T790M); assay: Kinase inhibitory activity against EGFR bearing the L858R/T790M double mutation; format: biochemical; conditions: 10 μM ATP, read-out: IC50 for kinase inhibition, EGFR L858R T790M
Method in brief: (§1)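 Testing covers a ten-concentration range beginning at 3 μM, performed once per concentration at an ATP level of 10 μM.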

[1] = test system: BaF3 cells expressing wildtype EGFR; assay: Antiproliferative activity (MTT) against control BaF3 cells expressing wildtype EGFR; format: cell-based; conditions: Mus musculus
Method in brief: (§2)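 MTT read-out; BaF3 lines carrying EGFR mutations vs wildtype-EGFR BaF3 control.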

[2] = target: T1, BaF3 cells expressing the target EGFR mutations (Homo sapiens, UniProt P00533, T790M/L858R, cells depend on it); assay: Antiproliferative activity (MTT) against BaF3 cells expressing the target EGFR mutations; format: cell-based; conditions: BAF3 EGFR L858R-T790M PURO POOL cells, read-out: IC50, BAF3 EGFR L858R-T790M PURO POOL
T1 construct: IC50, BAF3 EGFR L858R-T790M PURO POOL; other: BAF3 EGFR L858R-T790M PURO POOL cells, MTT; IC50, BAF3 EGFR L858R-T790M PURO POOL; other: BAF3 EGFR L858R-T790M PURO POOL cells; MTT
Method in brief: as §2

[3] = target: T2, BaF3 cells expressing the target EGFR mutations (Homo sapiens, UniProt P00533, T790M, cells depend on it, form not given); assay: as above; format: cell-based; conditions: BAF3 EGFR DEL T790M PURO POOL cells, read-out: IC50, BAF3 EGFR DEL T790M PURO POOL
T2 construct: IC50, BAF3 EGFR DEL T790M PURO POOL; other: BAF3 EGFR DEL T790M PURO POOL cells, MTT; other: BAF3 EGFR DEL T790M PURO POOL cells; MTT
T2 sequence (P00533 with tags, fused parts or gaps DEL746-750/T790M, form open): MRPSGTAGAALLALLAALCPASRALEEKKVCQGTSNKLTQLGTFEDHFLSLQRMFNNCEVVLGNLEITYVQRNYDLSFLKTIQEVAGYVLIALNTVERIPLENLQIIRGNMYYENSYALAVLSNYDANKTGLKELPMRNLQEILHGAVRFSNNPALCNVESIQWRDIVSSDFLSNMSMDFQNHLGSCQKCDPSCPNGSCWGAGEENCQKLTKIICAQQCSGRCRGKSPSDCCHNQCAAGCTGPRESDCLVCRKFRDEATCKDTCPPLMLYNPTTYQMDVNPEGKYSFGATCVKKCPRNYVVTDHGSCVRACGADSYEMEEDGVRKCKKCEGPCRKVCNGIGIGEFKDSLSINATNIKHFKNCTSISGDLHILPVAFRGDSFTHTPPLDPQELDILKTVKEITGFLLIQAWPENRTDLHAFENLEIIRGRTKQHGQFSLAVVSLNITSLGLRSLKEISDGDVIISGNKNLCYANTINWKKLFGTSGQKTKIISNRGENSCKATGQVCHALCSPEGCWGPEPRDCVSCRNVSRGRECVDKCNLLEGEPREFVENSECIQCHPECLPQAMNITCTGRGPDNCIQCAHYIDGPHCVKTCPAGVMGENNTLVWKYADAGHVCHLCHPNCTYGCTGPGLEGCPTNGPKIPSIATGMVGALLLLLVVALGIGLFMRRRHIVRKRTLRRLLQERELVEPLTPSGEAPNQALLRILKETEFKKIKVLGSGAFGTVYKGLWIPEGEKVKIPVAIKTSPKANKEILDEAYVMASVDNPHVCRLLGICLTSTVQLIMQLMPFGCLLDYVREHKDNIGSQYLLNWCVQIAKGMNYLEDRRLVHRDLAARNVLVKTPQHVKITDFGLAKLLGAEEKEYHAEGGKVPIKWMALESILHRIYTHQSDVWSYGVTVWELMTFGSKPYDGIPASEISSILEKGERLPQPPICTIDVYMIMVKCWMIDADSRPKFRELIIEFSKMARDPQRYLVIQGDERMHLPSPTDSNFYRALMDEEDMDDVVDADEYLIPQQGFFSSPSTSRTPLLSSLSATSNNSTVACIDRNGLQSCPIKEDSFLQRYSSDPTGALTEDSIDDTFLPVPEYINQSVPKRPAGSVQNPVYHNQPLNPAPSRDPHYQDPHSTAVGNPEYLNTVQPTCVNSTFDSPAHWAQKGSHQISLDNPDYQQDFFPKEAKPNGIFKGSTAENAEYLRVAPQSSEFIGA
Method in brief: as §2

[4] = target: human EGFR (native sequence) (Homo sapiens, UniProt P00533); assay: Kinase inhibitory activity against human EGFR (native sequence); format: biochemical; conditions: 10 μM ATP, read-out: IC50 for kinase inhibition, EGFR
Sequence of human EGFR (native sequence) (P00533 25-1210): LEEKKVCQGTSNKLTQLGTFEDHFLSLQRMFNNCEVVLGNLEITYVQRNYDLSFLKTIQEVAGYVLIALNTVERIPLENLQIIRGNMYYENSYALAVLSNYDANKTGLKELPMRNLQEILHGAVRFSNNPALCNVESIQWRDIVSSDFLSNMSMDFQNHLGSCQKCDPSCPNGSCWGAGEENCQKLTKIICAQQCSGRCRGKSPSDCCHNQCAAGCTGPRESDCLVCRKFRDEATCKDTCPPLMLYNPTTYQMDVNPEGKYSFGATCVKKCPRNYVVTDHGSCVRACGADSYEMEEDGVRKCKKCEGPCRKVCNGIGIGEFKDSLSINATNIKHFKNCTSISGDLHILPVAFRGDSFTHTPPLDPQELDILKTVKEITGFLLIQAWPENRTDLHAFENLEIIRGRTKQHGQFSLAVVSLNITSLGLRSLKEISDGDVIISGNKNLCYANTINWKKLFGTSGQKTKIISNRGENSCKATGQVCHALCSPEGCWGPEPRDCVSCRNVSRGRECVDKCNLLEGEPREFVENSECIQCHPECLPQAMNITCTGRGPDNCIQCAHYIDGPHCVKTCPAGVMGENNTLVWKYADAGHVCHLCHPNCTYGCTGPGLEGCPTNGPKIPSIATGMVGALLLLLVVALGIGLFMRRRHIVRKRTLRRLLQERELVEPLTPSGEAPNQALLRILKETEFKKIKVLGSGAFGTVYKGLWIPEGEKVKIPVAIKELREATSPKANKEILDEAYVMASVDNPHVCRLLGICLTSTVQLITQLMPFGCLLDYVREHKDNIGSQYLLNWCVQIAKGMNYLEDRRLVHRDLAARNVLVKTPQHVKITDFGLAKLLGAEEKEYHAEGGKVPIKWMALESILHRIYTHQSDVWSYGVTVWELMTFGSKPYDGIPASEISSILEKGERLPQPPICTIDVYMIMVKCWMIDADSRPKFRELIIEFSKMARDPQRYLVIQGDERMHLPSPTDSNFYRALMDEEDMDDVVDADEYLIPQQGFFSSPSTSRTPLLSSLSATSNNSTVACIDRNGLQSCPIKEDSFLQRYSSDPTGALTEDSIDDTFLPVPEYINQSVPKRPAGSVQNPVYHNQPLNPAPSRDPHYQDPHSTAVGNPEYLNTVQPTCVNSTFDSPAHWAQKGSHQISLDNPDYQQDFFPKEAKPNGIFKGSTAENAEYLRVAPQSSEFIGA
Method in brief: as §1

EGFR L858R = EGFR L858R (Homo sapiens, UniProt P00533, L858R); assay: Kinase inhibitory activity against EGFR bearing the L858R mutation; format: biochemical; conditions: 10 μM ATP, read-out: IC50 for kinase inhibition, EGFR L858R
Sequence of EGFR L858R (P00533 25-1210 L858R): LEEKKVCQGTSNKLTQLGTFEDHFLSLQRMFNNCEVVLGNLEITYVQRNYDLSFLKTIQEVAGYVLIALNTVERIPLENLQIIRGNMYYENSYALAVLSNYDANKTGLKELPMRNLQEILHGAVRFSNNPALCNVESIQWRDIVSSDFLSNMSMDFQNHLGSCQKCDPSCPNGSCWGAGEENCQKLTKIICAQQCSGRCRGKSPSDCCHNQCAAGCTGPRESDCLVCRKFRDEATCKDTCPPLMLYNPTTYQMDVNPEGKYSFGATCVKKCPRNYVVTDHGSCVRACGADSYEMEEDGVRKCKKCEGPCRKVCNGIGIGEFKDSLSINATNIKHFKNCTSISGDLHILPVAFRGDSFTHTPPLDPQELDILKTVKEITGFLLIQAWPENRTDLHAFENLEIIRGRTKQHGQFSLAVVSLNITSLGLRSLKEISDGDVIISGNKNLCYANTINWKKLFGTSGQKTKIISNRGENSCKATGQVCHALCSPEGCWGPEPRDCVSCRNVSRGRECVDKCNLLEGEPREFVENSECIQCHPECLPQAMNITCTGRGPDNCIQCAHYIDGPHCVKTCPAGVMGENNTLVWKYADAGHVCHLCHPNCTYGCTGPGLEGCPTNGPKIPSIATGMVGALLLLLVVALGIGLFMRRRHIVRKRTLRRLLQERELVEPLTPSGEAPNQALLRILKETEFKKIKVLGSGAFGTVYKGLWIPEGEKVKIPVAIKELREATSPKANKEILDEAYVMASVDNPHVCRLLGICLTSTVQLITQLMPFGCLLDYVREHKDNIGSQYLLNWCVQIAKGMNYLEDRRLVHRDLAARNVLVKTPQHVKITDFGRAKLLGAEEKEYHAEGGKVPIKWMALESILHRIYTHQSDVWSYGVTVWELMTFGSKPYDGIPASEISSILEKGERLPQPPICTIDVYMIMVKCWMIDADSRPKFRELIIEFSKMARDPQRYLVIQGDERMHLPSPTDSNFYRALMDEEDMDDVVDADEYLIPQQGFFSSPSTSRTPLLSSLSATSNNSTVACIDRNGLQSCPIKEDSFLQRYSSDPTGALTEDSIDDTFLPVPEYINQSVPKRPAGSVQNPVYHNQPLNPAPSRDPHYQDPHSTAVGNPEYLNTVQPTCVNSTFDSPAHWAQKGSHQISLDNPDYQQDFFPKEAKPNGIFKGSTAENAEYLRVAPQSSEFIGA
Method in brief: as §1

[5] = EGFR L858R/T790M double mutation
[6] = 10 pt curves, 3 μM top concentration

Sequence of EGFR L858R/T790M (P00533 25-1210 T790M/L858R): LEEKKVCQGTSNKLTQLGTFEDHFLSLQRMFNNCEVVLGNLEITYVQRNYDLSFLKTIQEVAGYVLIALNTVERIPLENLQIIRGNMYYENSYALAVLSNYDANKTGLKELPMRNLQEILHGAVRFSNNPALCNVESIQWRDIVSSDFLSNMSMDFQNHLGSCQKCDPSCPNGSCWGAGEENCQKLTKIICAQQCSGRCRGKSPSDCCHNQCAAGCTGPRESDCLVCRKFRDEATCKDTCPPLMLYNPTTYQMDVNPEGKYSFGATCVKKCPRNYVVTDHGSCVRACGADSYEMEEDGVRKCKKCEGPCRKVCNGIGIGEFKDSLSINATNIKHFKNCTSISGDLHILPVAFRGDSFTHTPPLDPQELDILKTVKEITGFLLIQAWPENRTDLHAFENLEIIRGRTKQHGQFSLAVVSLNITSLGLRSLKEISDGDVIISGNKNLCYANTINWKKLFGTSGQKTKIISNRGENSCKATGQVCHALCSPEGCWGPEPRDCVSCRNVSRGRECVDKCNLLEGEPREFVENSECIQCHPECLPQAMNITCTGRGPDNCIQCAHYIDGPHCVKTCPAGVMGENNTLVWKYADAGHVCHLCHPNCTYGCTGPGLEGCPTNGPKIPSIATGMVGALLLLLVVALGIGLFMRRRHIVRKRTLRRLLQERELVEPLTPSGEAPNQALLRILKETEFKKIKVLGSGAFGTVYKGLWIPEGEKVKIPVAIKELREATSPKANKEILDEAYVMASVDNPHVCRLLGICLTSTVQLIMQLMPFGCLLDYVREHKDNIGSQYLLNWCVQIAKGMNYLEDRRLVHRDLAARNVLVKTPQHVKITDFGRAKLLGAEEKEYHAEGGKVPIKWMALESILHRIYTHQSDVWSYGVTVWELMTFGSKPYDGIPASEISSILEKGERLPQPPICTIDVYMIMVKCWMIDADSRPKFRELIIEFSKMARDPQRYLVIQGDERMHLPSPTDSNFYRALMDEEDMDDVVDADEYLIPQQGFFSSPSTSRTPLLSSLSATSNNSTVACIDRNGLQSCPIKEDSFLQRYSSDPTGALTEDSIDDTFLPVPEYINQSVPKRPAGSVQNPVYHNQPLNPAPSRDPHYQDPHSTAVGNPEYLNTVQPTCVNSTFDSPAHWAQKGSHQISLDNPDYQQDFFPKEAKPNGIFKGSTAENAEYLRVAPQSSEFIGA

| IC50 (EGFR L858R/T790M; [5]) [nM] | GI50 [2] [nM] | GI50 [3] [nM] | IC50 ([4]; human EGFR native sequence) [nM] | IC50 (EGFR L858R; EGFR L858R) [nM] | IC50 (EGFR L858R/T790M; [6]) [nM] | IC50 [4, 6] [nM] | IC50 (EGFR L858R; [6]) [nM] | SMILES | IC50 ([1]; BAF3 PARENTAL cells (control)) [nM] | IC50 ([1]; BAF3 parental cells) [nM] |
| --- | --- | --- | --- | --- | --- | --- | --- | --- | --- | --- |
| < 50 | < 50 | < 50 | < 50 | < 50 |  |  |  | COc1cc(F)c(NC(=O)C#CCN2CCCC2)cc1Nc1ncc(Cl)c(Nc2ccccc2P(C)(C)=O)n1 [Example 89, N-(5-((5-chloro-4-((2-(dimethylphosphoryl)phenyl)amino)pyrimidin-2-yl)amino)-2-fluoro-4-methoxyphenyl)-4-(pyrrolidin-1-yl)but-2-ynamide] | ≥ 250 |  |
| < 50 | < 50 | < 50 | < 50 | < 50 |  |  |  | C=CC(=O)Nc1cc(Nc2ncc(Cl)c(Nc3ccccc3P(C)(C)=O)n2)c(OC)cc1O[C@@H]1CCCN(C)C1 (single isomer, unassigned) [Example 14] | ≥ 250 |  |
|  | ≥ 250 | ≥ 250 |  |  | 101 to 250 | 50 to 100 | < 50 | C=CC(=O)Nc1ccc(OC)c(Nc2cc(Nc3ncccc3P(C)(C)=O)ncn2)c1 [Example 163, N-(3-((6-((3-(dimethylphosphoryl)pyridin-2-yl)amino)pyrimidin-4-yl)amino)-4-methoxyphenyl)acrylamide] |  | ≥ 250 |
| < 50 | < 50 | < 50 | < 50 | < 50 |  |  |  | C=C(CN1CCN(C)CC1)C(=O)Nc1ccc(OC)c(Nc2ncc(Cl)c(Nc3ccccc3P(C)(C)=O)n2)c1 [Example 49, N-(3-((5-chloro-4-((2-(dimethylphosphoryl)phenyl)amino)pyrimidin-2-yl)amino)-4-methoxyphenyl)-2-((4-methylpiperazin-1-yl)methyl)acrylamide] | ≥ 250 |  |

Reference: US9834571B2, “Compounds for inhibiting cell proliferation in EGFR-driven cancers” (ARIAD Pharmaceuticals, Inc., priority 2012, dated 2017)
